In patent US7737140B2, “Therapeutic compounds” (Allergan, Inc., priority 2008, dated 2010):

Test system: lashes and adjacent hairs of the eyelids
Experiment: Clinical observation of lashes and adjacent hairs in glaucoma patients treated with bimatoprost in one eye
Type: in vivo
From the text: In the course of treating patients having glaucoma, treatment may only be appropriate in one eye. […] The lash appearance on the lids of the treated eyes would have appeared quite attractive if it represented a bilateral phenomenon. As a result of its asymmetric nature, the long lashes on one side could be construed as disturbing from a cosmetic standpoint. A systemic examination was preformed as a result of the asymmetric phenomenon. It soon became apparent that this altered appearance was not an isolated finding. […] Definite differences could be identified to varying degrees in the lashes and adjacent hairs of all patients who were taking the drug on a unilateral basis for longer than 6 months.
The changes in the lashes were apparent on gross inspection in several patients once attention was focused on the issue. In those with light colored hair and lashes, the differences were only seen easily with the aid of the high magnification and lighting capabilities of the slit lamp biomicroscope. In the course of glaucoma follow-up examination, attention is generally immediately focused on the eye itself. As a result of the high power magnification needed only one eye is seen at a time and the eye is seen at a high enough power that the lashes are not in focus. […]

CCNC(=O)CCC/C=C\C[C@@H]1[C@@H](/C=C/[C@@H](O)CCc2ccccc2)[C@H](O)C[C@@H]1O [bimatoprost]
hair growth in treated versus control areas (conclusion from multiple parameters of hair appearance in many subjects): stimulated | lashes in the treated eye compared with the non-treated eye (glaucoma patient treated with bimatoprost in only one eye): longer, thicker, and fuller
